The term pIC50 denotes the negative decadic logarithm of the IC50, by convention in mol/L. As usually defined, the inhibition is how much of the control response was suppressed.

This note sets out measurements from patent publication US9802960B2 (MILLENNIUM PHARMACEUTICALS, INC., priority 2014, dated 2017).

The structures appear in SMILES notation. pIC50: −log10 of the molar value.

Chain of Human VPS34 (Q8NEB9 whole entry): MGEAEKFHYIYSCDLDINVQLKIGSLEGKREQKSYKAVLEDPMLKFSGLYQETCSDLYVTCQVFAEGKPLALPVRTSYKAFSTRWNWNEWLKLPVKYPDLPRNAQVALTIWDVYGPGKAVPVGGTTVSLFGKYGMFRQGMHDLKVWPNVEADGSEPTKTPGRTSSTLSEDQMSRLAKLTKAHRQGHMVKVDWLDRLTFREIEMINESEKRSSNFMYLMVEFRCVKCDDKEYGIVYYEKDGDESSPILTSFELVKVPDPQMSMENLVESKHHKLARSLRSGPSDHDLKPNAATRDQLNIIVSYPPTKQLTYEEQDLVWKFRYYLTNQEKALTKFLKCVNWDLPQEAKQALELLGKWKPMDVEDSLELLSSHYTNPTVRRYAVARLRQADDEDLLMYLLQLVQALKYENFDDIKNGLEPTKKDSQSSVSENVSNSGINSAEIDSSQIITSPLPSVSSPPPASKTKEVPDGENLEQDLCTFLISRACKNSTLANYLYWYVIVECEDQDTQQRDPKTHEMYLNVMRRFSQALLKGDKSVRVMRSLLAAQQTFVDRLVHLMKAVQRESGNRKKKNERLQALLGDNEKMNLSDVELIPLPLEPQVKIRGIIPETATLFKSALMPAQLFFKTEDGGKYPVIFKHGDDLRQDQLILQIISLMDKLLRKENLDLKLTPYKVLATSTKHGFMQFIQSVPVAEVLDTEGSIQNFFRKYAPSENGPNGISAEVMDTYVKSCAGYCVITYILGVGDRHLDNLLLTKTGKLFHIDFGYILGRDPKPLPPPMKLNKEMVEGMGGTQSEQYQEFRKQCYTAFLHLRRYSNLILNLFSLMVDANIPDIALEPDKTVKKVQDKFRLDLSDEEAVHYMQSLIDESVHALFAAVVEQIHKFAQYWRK

The first assay concerns the target Human VPS34 (Homo sapiens (Human), UniProt Q8NEB9). The assay can be described thus: Human VPS34 enzyme assay (Adapta TR-FRET). The conditions noted are these: IC50 range class. Format: biochemical.
As for `CC(=O)Nc1cc(-c2cnc(N)c(S(=O)(=O)NC(C)C)c2)ccn1` [Compound I-7, N-[6-amino-5-(isopropylsulfamoyl)-3,4′-bipyridin-2′-yl]acetamide], the pIC50 was above 8.00.

`CC(=O)Nc1cc(-c2cnc(N)c(S(=O)(=O)NCc3cccnc3)c2)ccn1` [Compound I-19, N-{6-amino-5-[(pyridin-3-ylmethyl)sulfamoyl]-3,4′-bipyridin-2′-yl}acetamide]: the pIC50 is 7.00 to 7.30.

The same assay, now with this note: compound concentration 1.11 μM; read-out: Percent Inhibition.
As for `Cc1ncc(-c2ccnc(NC(=O)C3CC3(F)F)c2)cc1NS(=O)(=O)c1ccc(F)cc1F` (racemic) [Compound I-16, (rac)-N-(5-{[(2,4-difluorophenyl)sulfonyl]amino}-6-methyl-3,4′-bipyridin-2′-yl)-2,2-difluorocyclopropanecarboxamide], the inhibition at 1.11 µM was above 99%.

As to `CC(=O)Nc1cc(-c2cnc(C)c(N3CC(N(C)C)CS3(=O)=O)c2)ccn1` (single isomer, unassigned) [Compound I-496, N-(5-(4-(dimethylamino)-1,1-dioxidoisothiazolidin-2-yl)-6-methyl-[3,4′-bipyridin]-2′-yl)acetamide], the inhibition at 1.11 µM is above 99%.

For the compound `CC(=O)Nc1cc(-c2cnc(C)c(N3CC(N(C)C)CS3(=O)=O)c2)ccn1` (single isomer, unassigned) [Compound I-497, (R or S)—N-(5-(4-(dimethylamino)-1,1-dioxidoisothiazolidin-2-yl)-6-methyl-[3,4′-bipyridin]-2′-yl)acetamide], the inhibition at 1.11 µM was above 99%.

For `CC(=O)Nc1cc(-c2cnc(C)c(NS(=O)(=O)c3ccc(C(F)(F)F)nc3)c2)ccn1` [Compound I-1, N-[6-methyl-5-({[6-(trifluoromethyl)pyridin-3-yl]sulfonyl}amino)-3,4′-bipyridin-2′-yl]acetamide], the inhibition at 1.11 µM was above 99%.

With `CC(=O)Nc1cc(-c2cnc3cnn(S(=O)(=O)C4CC4)c3c2)ccn1` [Compound I-2, N-{4-[1-(cyclopropylsulfonyl)-1H-pyrazolo[4,3-b]pyridin-6-yl]pyridin-2-yl}acetamide], the inhibition at 1.11 µM was above 99%.

As to `CC(=O)Nc1cc(-c2cnc(N)c(S(=O)(=O)Cc3ccc4ccccc4c3)c2)ccn1` [Compound I-3], the inhibition at 1.11 µM came to 87%.

Regarding `Cc1cnc(NC(=O)C2CC2)cc1-c1cnc(C)c(NS(=O)(=O)c2ccc(F)cc2F)c1` [Compound I-4, N-(5-{[(2,4-difluorophenyl)sulfonyl]amino}-5′,6-dimethyl-3,4′-bipyridin-2′-yl)cyclopropanecarboxamide], the inhibition at 1.11 µM was above 99%.

For `CC(=O)Nc1cc(-c2cnc(N)c(S(=O)(=O)Cc3ccccc3)c2)ccn1` [Compound I-6, N-[6-amino-5-(benzylsulfonyl)-3,4′-bipyridin-2′-yl]acetamide], the inhibition at 1.11 µM was above 99%.

With `CC(=O)Nc1cc(-c2cnc(N)c(S(=O)(=O)NC(C)C)c2)ccn1` [Compound I-7, N-[6-amino-5-(isopropylsulfamoyl)-3,4′-bipyridin-2′-yl]acetamide], the inhibition at 1.11 µM was above 99%.

On to `CC(=O)Nc1cc(-c2cncc(C(=O)C3CC3)c2)ccn1` [Compound I-8, N-[5-(cyclopropylcarbonyl)-3,4′-bipyridin-2′-yl]acetamide], for which the inhibition at 1.11 µM was above 99%.

As to `CC(=O)Nc1cc(-c2cncc(S(=O)(=O)N3CCC(F)(F)CC3)c2)ccn1` [Compound I-9, N-{5-[(4,4-difluoropiperidin-1-yl)sulfonyl]-3,4′-bipyridin-2′-yl}acetamide], the inhibition at 1.11 µM is above 99%.

For `CC(=O)Nc1cc(-c2cnc(N)c(C(=O)N3CCCCC3)c2)ccn1` [Compound I-10, N-[6-amino-5-(piperidin-1-ylcarbonyl)-3,4′-bipyridin-2′-yl]acetamide], the inhibition at 1.11 µM was above 99%.

Turning to `CC(=O)Nc1cc(-c2cnc(N)c(S(=O)(=O)NC34CC(C3)C4)c2)ccn1` [Compound I-11, N-[6-amino-5-(bicyclo[1.1.1]pent-1-ylsulfamoyl)-3,4′-bipyridin-2′-yl]acetamide], the inhibition at 1.11 µM is above 99%.

Regarding `CC(=O)Nc1cc(-c2cncc(NS(=O)(=O)c3ccc(F)cc3F)c2)ccn1` [Compound I-12, N-(5-{[(2,4-difluorophenyl)sulfonyl]amino}-3,4′-bipyridin-2′-yl)acetamide], the inhibition at 1.11 µM is above 99%.

Regarding `CC(=O)Nc1cc(-c2cncc(NC(=O)c3ccccc3)c2)ccn1` [Compound I-13, N-(2′-acetamido-3,4′-bipyridin-5-yl)benzamide], the inhibition at 1.11 µM amounted to 81%.

In the case of `CC(=O)Nc1cc(-c2cnc(N)c(C(=O)NCC3CC3)c2)ccn1` [Compound I-14, 2′-acetamido-6-amino-N-(cyclopropylmethyl)-3,4′-bipyridine-5-carboxamide], the inhibition at 1.11 µM is above 99%.

With `CC(=O)Nc1cc(-c2cnc(N)c(C(=O)N3CCCC3)c2)ccn1` [Compound I-15, N-[6-amino-5-(pyrrolidin-1-ylcarbonyl)-3,4′-bipyridin-2′-yl]acetamide], the inhibition at 1.11 µM is above 99%.

`CC(=O)Nc1cc(-c2cnc3cc[nH]c3c2)ccn1` [Compound I-17, N-[4-(1H-pyrrolo[3,2-b]pyridin-6-yl)pyridin-2-yl]acetamide]: the inhibition at 1.11 µM is above 99%.

As for `CC(=O)Nc1cc(-c2cnc(C)c(NS(=O)(=O)c3cn(C)nc3C(F)(F)F)c2)ccn1` [Compound I-18, N-[6-methyl-5-({[1-methyl-3-(trifluoromethyl)-1H-pyrazol-4-yl]sulfonyl}amino)-3,4′-bipyridin-2′-yl]acetamide], the inhibition at 1.11 µM was above 99%.

Consider `CC(=O)Nc1cc(-c2cnc(N)c(S(=O)(=O)NCc3cccnc3)c2)ccn1` [Compound I-19, N-{6-amino-5-[(pyridin-3-ylmethyl)sulfamoyl]-3,4′-bipyridin-2′-yl}acetamide], for which the inhibition at 1.11 µM was above 99%.

For `CC(=O)Nc1cc(-c2cncc(N(C)S(C)(=O)=O)c2)ccn1` [Compound I-20, N-{5-[methyl(methylsulfonyl)amino]-3,4′-bipyridin-2′-yl}acetamide], the inhibition at 1.11 µM was above 99%.

For `CC(=O)Nc1cc(-c2cnc3c(c2)S(=O)(=O)N(C)CN3)ccn1` [Compound I-21, N-[4-(2-methyl-1,1-dioxido-3,4-dihydro-2H-pyrido[2,3-e][1,2,4]thiadiazin-7-yl)pyridin-2-yl]acetamide], the inhibition at 1.11 µM was above 99%.

Regarding `CNc1ncc(-c2ccnc(NC(C)=O)c2)cc1C(=O)N(C)C` [Compound I-22, 2′-acetamido-N,N-dimethyl-6-(methylamino)-3,4′-bipyridine-5-carboxamide], the inhibition at 1.11 µM is above 99%.

For the compound `CC(=O)Nc1cc(-c2cnc3ccn(S(=O)(=O)c4ccccc4)c3c2)ccn1` [Compound I-23, N-{4-[1-(phenylsulfonyl)-1H-pyrrolo[3,2-b]pyridin-6-yl]pyridin-2-yl}acetamide], the inhibition at 1.11 µM is above 99%.

Take `CC(=O)Nc1cc(-c2cnc(N)c(S(=O)(=O)N3CCOCC3)c2)ccn1` [Compound I-24, N-[6-amino-5-(morpholin-4-ylsulfonyl)-3,4′-bipyridin-2′-yl]acetamide]: the inhibition at 1.11 µM is above 99%.

As to `CC(=O)Nc1cc(-c2cnc(N(C)C)c(NS(=O)(=O)c3ccc(F)cc3F)c2)ccn1` [Compound I-25, N-[5-{[(2,4-diflurophenyl)sulfonyl]amino}-6-(dimethylamino)-3,4′-bipyridin-2′-yl]acetamide], the inhibition at 1.11 µM is above 99%.

On to `CCN(c1cc(-c2ccnc(NC(C)=O)c2)cnc1C)S(=O)(=O)C1CC1` [Compound I-26, N-{5-[(cyclopropylsulfonyl)(ethyl)amino]-6-methyl-3,4′-bipyridin-2′-yl}acetamide], for which the inhibition at 1.11 µM was above 99%.

As to `CCN(CC)C(=O)c1cc(-c2ccnc(NC(C)=O)c2)cnc1N` [Compound I-27, 2′-acetamido-6-amino-N,N-diethyl-3,4′-bipyridine-5-carboxamide], the inhibition at 1.11 µM was above 99%.

As for `CC(=O)Nc1cc(-c2cnc(C)c(NS(=O)(=O)c3cc(C)ccc3F)c2)ccn1` [Compound I-28, N-(5-{[(2-fluoro-5-methylphenyl)sulfonyl]amino}-6-methyl-3,4′-bipyridin-2′-yl)acetamide], the inhibition at 1.11 µM is above 99%.

Regarding `CC(=O)Nc1cc(-c2cnc3c(c2)N(CC2CC2)S(=O)(=O)N3)ccn1` [Compound I-29, N-{4-[1-(cyclopropylmethyl)-2,2-dioxido-1,3-dihydro[1,2,5]thiadiazolo[3,4-b]pyridin-6-yl]pyridin-2-yl}acetamide], the inhibition at 1.11 µM was above 99%.

On to `CC(=O)Nc1cc(-c2cnc(C)c(NS(=O)(=O)c3ccc(Cl)cc3Cl)c2)ccn1` [Compound I-30, N-(5-{[(2,4-dichlorophenyl)sulfonyl]amino}-6-methyl-3,4′-bipyridin-2′-yl)acetamide], for which the inhibition at 1.11 µM is above 99%.

Turning to `CC(=O)Nc1cc(-c2cnc(C)c(NS(=O)(=O)N(C)C)c2)ccn1` [Compound I-32, N-{5-[(dimethylsulfamoyl)amino]-6-methyl-3,4′-bipyridin-2′-yl}acetamide], the inhibition at 1.11 µM was above 99%.

Regarding `CC(=O)Nc1cc(-c2cnc3ccn(S(C)(=O)=O)c3c2)ccn1` [Compound I-33, N-{4-[1-(methylsulfonyl)-1H-pyrrolo[3,2-b]pyridin-6-yl]pyridin-2-yl}acetamide], the inhibition at 1.11 µM was above 99%.

Take `COC(=O)Nc1cc(-c2cnc(N)c(S(=O)(=O)C(C)C)c2)ccn1` [Compound I-34, methyl[6-amino-5-(isopropylsulfonyl)-3,4′-bipyridin-2′-yl]carbamate]: the inhibition at 1.11 µM is above 99%.

Take `CC(=O)Nc1cc(-c2cnc(N)c(NCC3CC3)c2)ccn1` [Compound I-35, N-{6-amino-5-[(cyclopropylmethyl)amino]-3,4′-bipyridin-2′-yl}acetamide]: the inhibition at 1.11 µM is above 99%.

Turning to `COC(=O)Nc1cc(-c2cnc(N)c(S(=O)(=O)N3CCCC3)c2)ccn1` [Compound I-36, methyl[6-amino-5-(pyrrolidin-1-ylsulfonyl)-3,4′-bipyridin-2′-yl]carbamate], the inhibition at 1.11 µM is above 99%.

With `CC(=O)Nc1cc(-c2cnc(N)c(S(=O)(=O)N(C)c3ccccc3)c2)ccn1` [Compound I-37, N-{6-amino-5-[methyl(phenyl)sulfamoyl]-3,4′-bipyridin-2′-yl}acetamide], the inhibition at 1.11 µM was above 99%.

As for `COC(=O)Nc1cc(-c2cnc3[nH]ncc3c2)ccn1` [Compound I-38, Methyl [4-(1H-pyrazolo[3,4-b]pyridin-5-yl)pyridin-2-yl]carbamate], the inhibition at 1.11 µM is above 99%.

For the compound `COc1ncc(-c2ccnc(NC(C)=O)c2)cc1S(=O)(=O)Nc1ccccc1` [Compound I-39, N-[6-methoxy-5-(phenylsulfamoyl)-3,4′-bipyridin-2′-yl]acetamide], the inhibition at 1.11 µM is above 99%.
